In PubChem BioAssay AID179 (DTP/NCI, 2004):
“And” between values parts separate entries of the source, which are not always exact repeats. Equal entries are not always repeated. The source made the active and inactive calls.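 The calls were made as follows: active = compounds giving half or more protection of infected cells from virus-caused growth loss, again on retest; inactive = the rest.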

Test system: CEM cells HIV-1 protection, formazan growth assay
Assay: NCI AIDS Antiviral Assay
Conditions: for IC50: measured here: growth of uninfected CEM cells
Method in brief: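 Steps: treat uninfected and HIV-1-infected human CEM cells at five drug levels; quantify growth by soluble formazan; retest any compound reaching 50% protection; classify actives from the retest.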

COc1cc2c3c(c1)nnn3C(=O)CS2
EC50: > 200 µM | IC50: > 200 µM

Cc1ccc(NC(=O)NC(=O)CCl)cc1
EC50: > 31.6 µM | IC50: 7.76 µM

CNNC1=NS(=O)(=O)c2cc(C#N)c(Cl)cc2S1
outcome: inactive

CC(=O)Nc1ccc(C(=O)NN2C(=O)C(Cl)C2c2cc(Br)ccc2O)cc1 (centres undefined)
EC50: > 200 µM | IC50: 4.17 µM

COc1ccc(-c2coc3cc(OC)cc(O)c3c2=O)cc1
EC50: > 200 µM | IC50: > 200 µM

Cc1cccc(C2=NC(c3ccccc3)C(c3ccccc3)N=C2c2cccc(C)n2)n1 (centres undefined)
EC50: > 16.2 µM | IC50: > 16.2 µM

CC(=O)OC(C)(C)C1CC[C@]2(C)/C=C/C(C)C[C@@H](O)/C=C(\C)CC(O)C12 (some centres undefined)
outcome: inactive

CCc1nc2c(O)ccc(O)c2nc1C
EC50: > 178 µM | IC50: 10.5 µM

Nc1ccc(-c2cc3ccccc3[nH]2)cc1
EC50: > 148 µM | IC50: 117 µM

Clc1ccc(C2NN=C3c4ccccc4OCC32)cc1 (centres undefined)
EC50: > 200 µM | IC50: 4.27 µM

COc1ccc(/C=C/C(=O)Oc2cc(O)cc(O)c2)cc1
EC50: > 200 µM | IC50: 4.57 µM

CCOC(=O)c1ccc(NC(=O)Nc2cc(C)ccn2)cc1
EC50: > 200 µM | IC50: > 200 µM

CCOC(=O)C1=C(O)CC(=O)N=C1N1CCCC1
EC50: > 200 µM | IC50: > 200 µM

CC1C2(C)OC(=N)C(C#N)(C(c3cccc([N+](=O)[O-])c3)O2)C1(C#N)C#N (centres undefined)
EC50: > 200 µM | IC50: 11.7 µM

OC12c3ccccc3C1CCCCCCCCCC21OCCCO1 (centres undefined)
EC50: > 200 µM | IC50: > 200 µM

COc1ccc(C2S/C(=C\c3ccc(O)cc3)C(=O)N2NC(=O)Cc2ccccc2)cc1 (centres undefined)
EC50: > 112 µM | IC50: > 112 µM

CCc1cc(C(N)=S)ccn1
EC50: > 200 µM | IC50: > 200 µM

Nc1nc2c(ccn2[C@H]2C=C[C@@H](CO)C2)c(=O)[nH]1
EC50: > 275 µM | IC50: > 275 µM

NNc1ncnc2c1ncn2C1OC(CO)CC1F (centres undefined)
EC50: > 148 µM | IC50: > 148 µM

NC1CCC[C@@H](O)[C@H]1O (some centres undefined)
EC50: > 200 µM | IC50: > 200 µM

CC(C)OC(=S)Nc1ccc(Cl)c(COC(C)(C)C)c1
EC50: 5.37 µM | IC50: 31.6 µM

C=CCC(C(=O)Nc1cccc2[nH]cnc12)C(=O)OCC (centres undefined)
EC50: > 200 µM | IC50: 195 µM

On1c(-c2ccccc2)nc2ccccc2c1=S
EC50: > 200 µM | IC50: 1.45 µM

COc1ccc(/C=C2\C(=O)N(C(=O)c3ccc(NC(C)=O)cc3)N=C2C)cc1
EC50: > 19.1 µM | IC50: > 19.1 µM

COC(=O)c1cc(S(=O)(=O)NC2=NCC(C)NN2)c(S)cc1Cl (centres undefined)
EC50: > 200 µM | IC50: 17 µM

N/N=c1\c2ccccc2c2ccc3c4ccccc4/c(=N\N)c3c12
EC50: > 11.5 µM | IC50: > 11.5 µM

c1ccc(C2=C(c3ccccc3)Sc3nnc(CCCCCCCCc4nnc5n4NC(c4ccccc4)=C(c4ccccc4)S5)n3N2)cc1
EC50: > 200 µM | IC50: 89.1 µM

O=C(CCCn1ccnc1[N+](=O)[O-])NCCn1cnc([N+](=O)[O-])c1
EC50: > 200 µM | IC50: > 200 µM

Cc1ccc(-c2cc(-c3ccco3)c(C#N)c(=O)n2C2OC(OC(=O)c3ccccc3)C(OC(=O)c3ccccc3)C2OC(=O)c2ccccc2)cc1 (centres undefined)
EC50: > 10.2 µM | IC50: > 10.2 µM

COc1ccc2c(c1)C(=O)CC=C(C(=O)O)N2
EC50: > 200 µM | IC50: > 200 µM

c1ccc(N2CC3CSc4c(ccc5ccccc45)C3=N2)cc1 (centres undefined)
EC50: > 200 µM | IC50: 162 µM

Cc1ccc(CC2(OCCN(C)C)CCC(C(C)(C)C)CC2)cc1 (centres undefined)
EC50: > 200 µM | IC50: 3.16 µM and 2.95 µM

CC(C)N([P-]C(=O)[P-]N(C(C)C)C(C)C)C(C)C.[C-]#[O+].[C-]#[O+].[C-]#[O+].[C-]#[O+].[C-]#[O+].[C-]#[O+].[Fe].[Fe] (centres undefined)
EC50: > 3.55 µM | IC50: > 3.55 µM

CC(=O)N1c2ccccc2C2=NN(C)C(=N)SC21 (centres undefined)
outcome: inactive

C[N+](C)(C)CCCS(=O)(=O)[O-]
EC50: > 200 µM | IC50: > 200 µM

O=c1[nH]cc(/C=N\OCCP(=O)(O)O)c(=O)[nH]1
EC50: > 200 µM | IC50: > 200 µM

Nc1nc(N)nc(CC(=O)O)n1
EC50: > 200 µM | IC50: > 200 µM

COc1ccc(CCCCl)c(C2=NCCc3cc(OC)c(OC)cc32)c1
EC50: > 200 µM | IC50: 36.3 µM

O=C(CC(C(=O)c1cccs1)c1ccsc1)c1cccs1 (centres undefined)
EC50: > 200 µM | IC50: 40.7 µM

CCN(CC)CC(=O)Nc1cc(Cl)ccc1C
EC50: > 200 µM | IC50: > 200 µM

Cc1c2ccccc2nc(CSC#N)[n+]1[O-]
EC50: > 200 µM | IC50: 36.3 µM

CC1(C)CC(=O)C(/C(=N/NC(=S)NN)C(=O)Nc2nc3ccc([N+](=O)[O-])cc3s2)C(=O)C1
EC50: > 53.7 µM | IC50: > 53.7 µM

CN=C(NN)NS(=O)(=O)c1cc(C)c(Cl)cc1S
outcome: inactive

NCCCN1CCN(CCCN)CC1 (tested in a mixture with another compound)
EC50: > 200 µM | IC50: > 200 µM
